In PMC4939156, “Study of a mechanism responsible for potential antidepressant activity of EMD 386088, a 5-HT6 partial agonist in rats” (Naunyn-Schmiedeberg's Archives of Pharmacology, 2016):
Counter-ions that a name gives are not always drawn.

Biological target: T1, dopamine transporter (DAT) (Homo sapiens, UniProt Q01959)
T1 construct: gene SLC6A3; human recombinant, CHO cells
Assay: Cerep DAT affinity assay, human recombinant CHO cells (called radioligand in the Discussion, functional in Methods)
Assay type: binding

T1 sequence (Q01959 whole entry): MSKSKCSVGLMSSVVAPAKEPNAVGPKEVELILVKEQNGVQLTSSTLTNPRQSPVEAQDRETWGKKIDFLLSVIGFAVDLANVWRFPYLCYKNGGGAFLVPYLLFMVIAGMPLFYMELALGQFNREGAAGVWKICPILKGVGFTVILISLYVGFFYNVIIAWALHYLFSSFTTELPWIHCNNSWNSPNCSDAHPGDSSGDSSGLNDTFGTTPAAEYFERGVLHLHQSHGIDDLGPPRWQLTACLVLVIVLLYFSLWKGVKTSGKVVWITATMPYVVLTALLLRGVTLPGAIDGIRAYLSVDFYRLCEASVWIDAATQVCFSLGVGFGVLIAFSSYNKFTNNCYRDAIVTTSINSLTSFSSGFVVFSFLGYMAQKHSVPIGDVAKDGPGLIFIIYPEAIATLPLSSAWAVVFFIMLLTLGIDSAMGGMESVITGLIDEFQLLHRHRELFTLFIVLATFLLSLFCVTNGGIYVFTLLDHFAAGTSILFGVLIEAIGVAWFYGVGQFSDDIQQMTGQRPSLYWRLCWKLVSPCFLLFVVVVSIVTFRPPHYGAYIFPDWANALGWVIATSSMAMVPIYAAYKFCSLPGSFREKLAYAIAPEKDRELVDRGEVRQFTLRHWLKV

Cc1[nH]c2ccc(Cl)cc2c1C1=CCNCC1 [EMD 386088, 5-chloro-2-methyl-3-(1,2,3,6-tetrahydro-4-pyridinyl)-1H-indole hydrochloride]
Ki: 41 nM
